From patent publication US7803764B2, “Amphipathic glycopeptides” (The Arizona Board of Regents on Behalf of the University of …, priority 2004, dated 2010)
Entries after “also recorded” stand apart in the source; their conditions may differ.

Key:
[1] = helicity by circular dichroism; format: physicochemical
Method: Circular Dichroism. All of the circular dichroism experiments were carried out on Aviv Associates model 60DS using an Endcal Model RTE4DD water circulator as a temperature-control vehicle. The instrument was calibrated by using d-10-camphorsulphonic acid. The spectra were recorded between 200 and 250 nm by using the continuous mode with a 1.5 nm bandwidth, a three second response and a scan step of 0.5 nm in a cell with a path length of 0.1 cm. Three or five scans were accumulated and averaged for each spectrum. Glycopeptide stock solutions were prepared by weighing the required amount, using Cahn/Ventron Instruments Model 21 automatic analytical electrobalance, to make 1 mL of a 0.5-1.0 mM solution and the pH was adjusted to the desired value. Samples were prepared by diluting the stock solution to 70-80 μM. All observed spectra were baseline-subtracted and smoothed by adjacent average of 5 points using Microcal Origin Ver. 5.0 software (Microcal Software Inc, USA). The molar ellipticities were determined using the formula [θ]=[θ]obs·(MRW)/10·l·C, where [θ]obs observed ellipticity in millidegrees, MRW is the mean residue weight, l is the cell path length in centimeters and C is the glycopeptide concentration in mg/mL. The percent α-helicity was determined by using the formula % helix=[θ]n→π*/−40,000 (1−2.5/n)·100, where n represents the number of amide bonds (including the C-terminal amide) in the glycopeptide and [θ]n→π** is molar ellipticity of n→π* transition band at 222 nm.^55
Conformational Analysis by CD. Circular dichroism (CD) is a powerful and simple tool for identifying secondary structure in both peptides and proteins.^64 All the peptides were subjected to CD analysis in H2O, TFE-H2O mixtures, SDS micelles and phospholipid bicelles. In H2O, a negative band near 200 nm is observed that arises from the π→π* electronic transition and is typical of random coil peptides. […] This behavior is explained as nascent helices.^65 In these nascent helices, helix CD signals could be induced by the addition of TFE.^66 All the glycopeptides gave an increased helix CD signal in TFE. The percentage of helicity increases as TFE concentration increases, but reached a maximum at 30% TFE. The increase in helicity in TFE can be attributed to decreased competition by H2O for hydrogen bonding to the backbone amides. […] In the presence of SDS micelles and anionic bicelles, the band at 200 nm underwent a red shift (higher value) and an additional shoulder appears around 222 nm as a result of the n→π* transition. […] The negative maxima at 222 nm (n→π* transition band) is used to calculate the helical content of polypeptides and proteins. The accepted value for a peptide that is 100% helical is approximately −35,000. It was observed that changes in amplitude of the bands up to 30% depend on length of helix.^67 The amplitude increases as α-helical chain length increases. Therefore, one has to consider the importance of chain-length dependence of the α-helix CD in the quantitative treatment of helix content in proteins and polypeptides. The percentage of helicity is independent of SDS concentration and pH (data not shown). In the presence of zwitterionic bicelles all of the glycopeptides yielded CD spectra similar to that observed in H2O, but anionic bicelles forced them to become more helical. The intensities of the [θ]π→π* band and the [θ]n→π* band are expected to be almost equal for a perfect α-helical peptide. […] A modest blue shift and reduced intensity for the [θ]n→π* transition bands are observed for all the glycopeptides in TFE. […] The glycopeptides 9 (Pro/Glc) and 12 (Pro/Lactose), which differ only by the sugar moiety attached, adopt perfect helices in the presence of SDS micelles and in anionic bicelles. The disaccharide increased the percentage of helicity in all the solvents, relative to the monosaccharide. […] It is remarkable to note that a single amino acid mutation at position 6 produced profound changes in the CD spectra. […]

[2] = in vivo antinociception after i.c.v. administration; set-up: species or system mice; settings: for A50 i.c.v.: antinociception
[3] = biological target: μ opioid receptor (Homo sapiens, UniProt P35372); experiment: opioid receptor binding, μ receptor
[4] = water solubility; settings: H2O
[5] = biological target: δ opioid receptor (Homo sapiens, UniProt P41143); experiment: opioid receptor binding, δ receptor
[6] = Plasmon-waveguide resonance (PWR) binding to lipid bilayer; settings: egg PC bilayer, 25° C., read-out: dissociation constant KD for lipid bilayer
Method: Plasmon-waveguide resonance (PWR) spectroscopy. The PWR instrument used for these experiments was Aviv Beta prototype version device obtained from Proterion Corp. (Piscataway, N.J.) having a spectral resolution of 1 millidegree. Self-assembled so lid-supported lipid membranes were prepared according to the method used for the formation of freely suspended lipid bilayers.^62 This involves spreading a small amount of lipid solution across an orifice in a Teflon sheet that separates the thin dielectric film (SiO2) from the aqueous phase. The hydrophilic surface of hydrated SiO2 attracts the polar groups of the lipid molecules, thus inducing an initial orientation of the lipid molecules, with the hydrocarbon chains pointing toward the droplet of excess lipid solution. The next steps of bilayer formation, induced by adding aqueous buffer to the sample compartment of the PWR cell, involve a thinning process and the formation of a plateau-Gibbs border of lipid solution that anchors the membrane to the Teflon spacer. In the present experiments, the lipid films were formed from a solution containing 5 mg/ml egg phosphatidylcholine (PC) in squalene/butanol/methanol (0.05:9.5:0.5, v/v). […] Aliquots of the glycosylated peptides, dissolved in deionized water, were injected stepwise in the PWR cell sample and the signal monitored until equilibrium was reached (PWR signal steady). […]

[7] = blood-brain barrier uptake / penetration; settings: mice
[8] = helicity by NMR αCH chemical shift index; format: physicochemical
Method: NMR Spectroscopy. All NMR spectra were recorded on a Bruker DRX600 600 MHz spectrometer. Glycopeptide concentration for the NMR experiments varied from 2-3 mM. The glycopeptides were prepared in TFE-water solution by dissolving the peptide in 0.6 ml solution of a premixed 30% TFE-water mixture. The micelle samples were prepared by dissolving the glycopeptide and 100 equivalent of perdeuterated SDS in 0.6 ml of H2O/D2O (9:1 ratio by volume). Bicelles were produced from deuterated phospholipids. The zwitterionic bicelles were made by mixing the short chain phospholipid dihexanoyl-sn-glycero-3-phosphatidylcholine-d22 (DHPC) and the long chain 1,2-dimyristoyl-sn-glycero-3-phosphatidylcholine-d54 (DMPC) in the molar ratio of 2:1 in H2O. The […] were prepared by substituting 10 mol % of 1,2-dimyristoyl-sn-glycero-3-phospho-1-glycerol-d54 (DMPG) for DMPC. The glycopeptide to bicelle ratio was 1:25. After the glycopeptide was added to the bicelle solution, the system was submitted to a series o f three freeze/thaw/slight vortex shaking cycles. The pH of the each sample was adjusted to 4.5 by using DCl or NaOD as necessary. TSP (3-(trimethylsilyl)-d4-propionic acid) was added as an internal standard. The experiments in F3CCD2OD/H2O mixtures were at 293 K and for experiments in micelles/bicelles were at 298 or 311 K. Two-dimensional double quantum filtered correlation (DQF-COSY), rotating-frame Overhauser enhancement^56 (ROESY), Nuclear Overhauser enhancement^57 (NOESY), and total correlation spectra^58 (TOCSY) were acquired using standard pulse sequences and processed using XWINNMR (Bruker Inc) and FELIX2000 (Accelrys Inc, San Diego, Calif.), Mixing times for TOCSY spectra were either 80 or 100 ms. Mixing times for ROESY spectra were 150 or 250 ms, and for NOESY spectra were 200 or 300 ms. All experiments were 750 increments in t1, 16/32/64 scans each, 1.5 s relaxation delay, size 2 or 4K, and the spectral processing was with shifted sine bell window multiplications in both dimensions.
αCH Chemical Shift Index. […] At this point there is no accepted random coil αCH values for glycosylated serine, CSI values for this position are uncertain. The conformational shift values for all solvents were obtained using the random coil values described by Wright and co-workers.^72 Although, these reference shifts were obtained at pH=5.0 at 4.2° C., they appear to be very insensitive to the conditions, as very small deviations (±0.04) were observed when random coil values are obtained at pH=7.0 at 35° C. by Wuthrich and co-workers.^68 The quantification of secondary structure based on αCH chemical shifts is neglected in the literature because various contributions cannot be strictly accounted for, such as electrostatic effects, ring current shifts, and other magnetic anisotropies. However, it is possible to make qualitative comparison of helical content between closely related (glyco)peptides. Since the 3rd generation glycopeptides differ by only one amino acid at position 6, the helical content was obtained based on the αCH chemical shift values (Table 3). The method described by Gierasch and co-workers^69a was used. First, the average conformational shift was calculated for each glycopeptide by adding all upfield shifts in the helical regions and dividing by the total number of peptide bonds. Then, to obtain the overall helical content for each glycopeptide, the average conformational shift was divided by 0.35 ppm, which was assigned for 100% helicity. Since, there are no random coil values available for β-Alanine and glycosylated serine residues, they were not included in the calculation. The helicogenic Aib residue lacks an α-proton, and there was no correction included in the calculation for the helicity provided by Aib residue. The helical content obtained by this method correlated with the helical content obtained by CD. […]

[9] = solvent Bicelle A (anionic bicelles)

δ opioid receptor, sequence (P41143 whole entry): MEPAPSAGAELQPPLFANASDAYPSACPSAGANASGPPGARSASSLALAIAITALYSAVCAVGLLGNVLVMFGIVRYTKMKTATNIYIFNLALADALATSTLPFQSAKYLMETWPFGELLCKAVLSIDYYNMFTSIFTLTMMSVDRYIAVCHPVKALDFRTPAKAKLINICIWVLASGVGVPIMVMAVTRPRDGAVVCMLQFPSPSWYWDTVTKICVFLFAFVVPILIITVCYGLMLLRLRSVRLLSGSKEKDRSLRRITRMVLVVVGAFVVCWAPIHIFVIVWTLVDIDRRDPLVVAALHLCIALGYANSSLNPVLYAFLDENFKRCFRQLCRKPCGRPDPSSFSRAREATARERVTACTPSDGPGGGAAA
μ opioid receptor, sequence (P35372 whole entry): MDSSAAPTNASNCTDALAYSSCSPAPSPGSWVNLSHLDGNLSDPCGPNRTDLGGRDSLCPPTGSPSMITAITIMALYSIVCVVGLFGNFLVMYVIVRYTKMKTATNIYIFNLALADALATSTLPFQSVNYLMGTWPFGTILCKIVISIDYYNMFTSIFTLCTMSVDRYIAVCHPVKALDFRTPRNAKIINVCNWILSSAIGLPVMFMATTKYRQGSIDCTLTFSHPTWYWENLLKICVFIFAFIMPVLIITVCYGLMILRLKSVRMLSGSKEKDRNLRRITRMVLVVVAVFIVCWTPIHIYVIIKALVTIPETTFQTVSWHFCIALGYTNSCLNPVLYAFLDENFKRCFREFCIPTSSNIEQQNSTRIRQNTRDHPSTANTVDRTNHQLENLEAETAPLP

| SMILES | % α-helicity ([1]; CD, SDS micelles (30 mM), pH = 7.0, 18° C.) [%] | potency relative to morphine ([2]; i.c.v. administration, more potent than morphine) | A50 value after i.c.v. administration ([2]; i.c.v., mice) [pmoles per mouse] | A50 i.c.v. ([2]; i.c.v., mice) [nmol] | IC50 [3] [nM] | water solubility [4] | IC50 [5] [nM] | receptor selectivity (in words) ([5]; δ versus μ, receptor binding assays) | % α-helicity by CD [1, 9] [%] | % α-helicity by CD ([1]; solvent H2O) [%] | % α-helicity by CD ([1]; solvent SDS micelles) [%] | % α-helicity by CD ([1]; solvent TFE) [%] | Kd [6] [µM] | BBB uptake [7] | blood brain barrier penetration (in words) [7] | % α-helicity by NMR ([8]; solvent Bicelle A) [%] | % α-helicity by NMR ([8]; solvent H2O) [%] | % α-helicity by NMR ([8]; solvent SDS micelles) [%] | % α-helicity by NMR ([8]; solvent TFE) [%] |
| --- | --- | --- | --- | --- | --- | --- | --- | --- | --- | --- | --- | --- | --- | --- | --- | --- | --- | --- | --- |
| CC(C)C[C@H](NC(=O)[C@H](C)NC(=O)[C@H](CC(N)=O)NC(=O)[C@H](Cc1ccccc1)NC(=O)[C@H](Cc1c[nH]c2ccccc12)NC(=O)[C@H](CCCCN)NC(=O)[C@H](CO[C@@H]1O[C@H](CO)[C@@H](O)[C@H](O)[C@H]1O)NC(=O)[C@H](C)NC(=O)[C@H](CC(C)C)NC(=O)[C@H](CCC(=O)O)NC(=O)CNC(=O)[C@H](CC(C)C)NC(=O)[C@H](Cc1ccccc1)NC(=O)CNC(=O)[C@H](NC(=O)[C@@H](N)Cc1ccc(O)cc1)[C@H](C)O)C(=O)N[C@@H](CCC(=O)O)C(=O)N[C@@H](CO[C@@H]1O[C@H](CO)[C@@H](O)[C@H](O)[C@H]1O)C(N)=O (relative stereo) [Glycopeptide 2, YtGFLGELAS*KWFNALES*] | 67 | roughly 18 times | 120 | 0.27 | 144 | appreciable water solubility; also recorded: significant solubility in water | 9.5 | somewhat δ-selective |  |  |  |  |  |  |  |  |  |  |  |
| CC(C)C[C@H](NC(=O)[C@H](CO[C@@H]1O[C@H](CO)[C@@H](O)[C@H](O)[C@H]1O)NC(=O)[C@H](CCCCN)NC(=O)[C@H](CC(C)C)NC(=O)[C@H](C)NC(=O)[C@H](CCCCN)NC(=O)[C@H](CCC(=O)O)NC(=O)C(C)(C)NC(=O)[C@H](CC(C)C)NC(=O)[C@H](CC(N)=O)NC(=O)[C@@H]1CCCN1C(=O)[C@H](CC(C)C)NC(=O)[C@H](Cc1ccccc1)NC(=O)CNC(=O)[C@H](NC(=O)[C@@H](N)Cc1ccc(O)cc1)[C@H](C)O)C(N)=O (relative stereo) [Glycopeptide 9, YtGFLPNLBEKALKS*L] |  |  |  | 0.030 | 90.8 |  | 6.15 |  | 25 | >1 | 24 | 18 | 0.007 to 0.008 | 0.390 microliters per min per gram of cortex | efficiently cross the blood brain barrier; also recorded: much better BBB penetration rates; also recorded: best BBB penetration | 44 | 20 | 46 | 30 |
| CC(C)C[C@H](NC(=O)[C@H](CO[C@@H]1O[C@H](CO)[C@@H](O)[C@H](O)[C@H]1O)NC(=O)[C@H](CCCCN)NC(=O)[C@H](CC(C)C)NC(=O)[C@H](C)NC(=O)[C@H](CCCCN)NC(=O)[C@H](CCC(=O)O)NC(=O)C(C)(C)NC(=O)[C@H](CC(C)C)NC(=O)[C@H](CC(N)=O)NC(=O)CNC(=O)CNC(=O)[C@H](CC(C)C)NC(=O)[C@H](Cc1ccccc1)NC(=O)CNC(=O)[C@H](NC(=O)[C@@H](N)Cc1ccc(O)cc1)[C@H](C)O)C(N)=O (relative stereo) [Glycopeptide 11, YtGFLGGNLBEKALKS*L] |  |  |  | 0.030 | 53 |  | 32.5 |  | 17 | >1 | 17 | 18 | 30 | 0.002 microliters per min per gram of cortex | did not; also recorded: low BBB penetration rates |  | 19 | 39 | 28 |
